From patent US8258103B2, “Pesticidal composition” (Sumitomo Chemical Company, Limited, priority 2007, dated 2012)

How the values were obtained:
[1] = tested on: Spodoptera litura; test: Test Example 1: cabbage leaf immersion test, insecticidal rate on fourth-instar larvae; type: in vivo; conditions: for Found value of insecticidal rate (%): after 2 days
Protocol: (§1) The theoretical value of an insecticidal (ovicidal) rate obtained by using a mixture of 2 kinds of active ingredients was calculated by the following formula: E=X+Y−(X×Y/100), which conforms to the Colby's formula. X: Insecticidal rate (%) of the active ingredient A at M Ppm Y: Insecticidal rate (%) of the active ingredient B at N ppm E: Theoretical insecticidal rate (%) of combination use of the active ingredient A at M ppm and the active ingredient B at N ppm
(§2) When an actual insecticidal (ovicidal) rate exceeds the theoretical value, it is determined that the used two active ingredients produce a synergetic effect.
(1) 12 parts of spinetoram as the present compound 1, 35 parts of a carrier on which a polyoxyethylene alkyl ether sulfate ammonium salt and white carbon in a weight ratio of 1:1 were adsorbed, and 53 parts of water were mixed, and finely milled by a wet milling method to obtain a spinetoram formulation (hereinafter, referred to as the formulation A).
(2) A flowable formulation containing 10 parts of pyridalyl, which is the present compound 2, as the active ingredient (trade name: PLEO flowable, manufactured by Sumitomo Chemical Co., Ltd.) (hereinafter, referred to as the formulation B) was used.
(3) The formulation A was diluted with water to prepare a water dilution having an active ingredient concentration shown in Table 1. To the water dilution, 1/5,000 volume of a spreading agent (Sindain, manufactured by Sumitomo Chemical Takeda Agro Co., Ltd.) was added to prepare a test solution containing the present compound 1. The formulation B was diluted with water to prepare a water dilution having an active ingredient concentration shown in Table 1. To the water dilution, 1/5,000 volume of a spreading agent (Sindain, manufactured by Sumitomo Chemical Takeda Agro Co., Ltd.) was added to prepare a test solution containing the present compound 2.
(§3) A water dilution of the formulation A and a water dilution of the formulation B were mixed so that the respective active ingredients could reach concentrations shown in Table 1. To the mixture, 1/5,000 volume of a spreading agent (Sindain, manufactured by Sumitomo Chemical Takeda Agro Co., Ltd.) was added to prepare a test solution containing the present compound 1 and the present compound 2.
(§4) (4) A cabbage was planted in a pot and grown until the fourth leaf stage. The leaves of the cabbage were cut off one by one, and then immersed in the above-described test solution for 60 seconds. After air drying, the cabbage leaves were each placed in a cup with a filter paper spread on the bottom. Ten fourth-instar larvae of Spodoptera litura were released into each cup. […] An insecticidal rate was calculated and corrected according to the following formula.
Insecticidal rate (%)=100×(Mt−Mc)/(100−Mc)
(§5) Mt: Worm death rate (%) in a section treated with a test compound
(§6) Mc: Worm death rate (%) in a section not treated with a test compound

[2] = tested on: Spodoptera litura; test: Test Example 2: cabbage leaf immersion test, insecticidal rate on fourth-instar larvae; type: in vivo; conditions: after 2 days
Protocol: as §1, §2
(1) The formulation A was diluted with water to prepare a water dilution having an active ingredient concentration shown in Table 2. To the water dilution, 1/5,000 volume of a spreading agent (Sindain, manufactured by Sumitomo Chemical Takeda Agro Co., Ltd.) was added to prepare a test solution containing the present compound 1.
The formulation B was diluted with water to prepare a water dilution having an active ingredient concentration shown in Table 2. To the water dilution, 1/5,000 volume of a spreading agent (Sindain, manufactured by Sumitomo Chemical Takeda Agro Co., Ltd.) was added to prepare a test solution containing the present compound 2.
as §3, with “2.” for “1.”
as §4, with “(2)” for “(4)”, “formula. Insecticidal rate (%)=100×(Mt−Mc)/(100−Mc)” for “formula.”
as §5, §6

spinetoram [Spinetoram (present compound 1)]
Theoretical value of insecticidal rate (%) ([1]; 0.73 ppm single ingredient): 0%
Found value of insecticidal rate (%) ([1]; 0.73 ppm single ingredient): 0%
Theoretical value of insecticidal rate (%) ([1]; 2.9 ppm single ingredient): 0%
Found value of insecticidal rate (%) ([1]; 2.9 ppm single ingredient): 0%
Found value of insecticidal rate (%) ([2]; 0.25 ppm single ingredient): 0%
Found value of insecticidal rate (%) ([2]; 2.5 ppm single ingredient): 0%

FC(F)(F)c1ccc(OCCCOc2c(Cl)cc(OCC=C(Cl)Cl)cc2Cl)nc1 [Pyridalyl (present compound 2), 2,6-dichloro-4-(3,3-dichloroallyloxy)phenyl 3-[5-(trifluoromethyl)-2-pyridyloxy]propyl ether]
Theoretical value of insecticidal rate (%) ([1]; 2.5 ppm single ingredient): 0%
Found value of insecticidal rate (%) ([1]; 2.5 ppm single ingredient): 0%
Found value of insecticidal rate (%) ([2]; 0.25 ppm single ingredient): 0%
Found value of insecticidal rate (%) ([2]; 2.5 ppm single ingredient): 16.7%
